# Target: Receptor-interacting serine/threonine-protein kinase 3 (Homo sapiens, UniProt Q9Y572)
# Test: In Vitro Assay
# Experimental: (§1) Binding affinity of the test compounds for human MLKL (full length), mouse MLKL (full length), human RIPK1 and human RIPK3 was determined using the KINOMEscan™ technology developed by DiscoverX (USA; http://www.discoverx.com). The assay was conducted according to manufacturer instructions.
# Receptor-interacting serine/threonine-protein kinase 3, sequence (Q9Y572 whole entry): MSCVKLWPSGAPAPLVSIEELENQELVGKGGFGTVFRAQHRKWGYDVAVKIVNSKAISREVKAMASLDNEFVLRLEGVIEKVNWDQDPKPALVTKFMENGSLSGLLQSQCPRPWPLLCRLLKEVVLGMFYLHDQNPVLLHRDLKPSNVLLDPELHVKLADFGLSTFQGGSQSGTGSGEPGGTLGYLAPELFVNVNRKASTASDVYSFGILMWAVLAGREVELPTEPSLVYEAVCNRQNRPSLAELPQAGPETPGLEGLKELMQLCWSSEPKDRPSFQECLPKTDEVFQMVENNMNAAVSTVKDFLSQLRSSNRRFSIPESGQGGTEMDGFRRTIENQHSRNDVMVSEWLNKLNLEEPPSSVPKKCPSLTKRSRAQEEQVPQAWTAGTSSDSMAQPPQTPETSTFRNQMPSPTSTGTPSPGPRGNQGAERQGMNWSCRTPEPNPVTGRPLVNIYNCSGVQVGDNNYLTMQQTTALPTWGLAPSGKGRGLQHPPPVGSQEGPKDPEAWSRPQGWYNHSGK
row,SMILES,Kd [µM]
1,"C[C@H](Oc1cc(-c2nn(C)c3c(-c4cnn(C5CCOCC5)c4)cnc(N)c23)ccc1NS(=O)(=O)C(F)F)c1ccc(F)cc1 [US20250115598, Compound 135]",> 2.5
2,"Nc1ncc(-c2cnn(C3CCOCC3)c2)c2occ(-c3ccc(NS(=O)(=O)C(F)F)c(OCc4ccc(F)cc4)c3)c12 [US20250115598, Compound 5]",> 2.5
3,"COc1ccc([C@H](C)Oc2cc(-c3nn(C)c4c(-c5cnn(C6CCOCC6)c5)cnc(N)c34)ccc2NS(=O)(=O)C(F)F)cc1 [US20250115598, Compound 129]",> 2.5
4,"C[C@H](Oc1cc(-c2nn(C)c3c(-c4cnn(C5CCN(C)C(C(F)F)C5)c4)cnc(N)c23)ccc1NS(=O)(=O)C(F)F)c1ccc(F)cc1 (stereo partly drawn) [US20250115598, Compound 158]",> 2.5

# The next lines start with the values.
row,Kd [µM],SMILES
1,> 2.5,"C[C@H](Oc1cc(-c2nn(C)c3c(C4=CCCN(C)C4)cnc(N)c23)ccc1NS(=O)(=O)C(F)F)c1ccc(F)cc1 [US20250115598, Compound 55]"
2,> 2.5,"Cn1nc(-c2ccc(NS(=O)(=O)C(F)F)c(OCc3ccc(F)cc3)c2)c2c(N)ncc(-c3ccncc3)c21 [US20250115598, Compound 14]"

# Target: T1, Receptor-interacting serine/threonine-protein kinase 1 (Homo sapiens, UniProt Q13546)
# T1 sequence (Q13546 whole entry): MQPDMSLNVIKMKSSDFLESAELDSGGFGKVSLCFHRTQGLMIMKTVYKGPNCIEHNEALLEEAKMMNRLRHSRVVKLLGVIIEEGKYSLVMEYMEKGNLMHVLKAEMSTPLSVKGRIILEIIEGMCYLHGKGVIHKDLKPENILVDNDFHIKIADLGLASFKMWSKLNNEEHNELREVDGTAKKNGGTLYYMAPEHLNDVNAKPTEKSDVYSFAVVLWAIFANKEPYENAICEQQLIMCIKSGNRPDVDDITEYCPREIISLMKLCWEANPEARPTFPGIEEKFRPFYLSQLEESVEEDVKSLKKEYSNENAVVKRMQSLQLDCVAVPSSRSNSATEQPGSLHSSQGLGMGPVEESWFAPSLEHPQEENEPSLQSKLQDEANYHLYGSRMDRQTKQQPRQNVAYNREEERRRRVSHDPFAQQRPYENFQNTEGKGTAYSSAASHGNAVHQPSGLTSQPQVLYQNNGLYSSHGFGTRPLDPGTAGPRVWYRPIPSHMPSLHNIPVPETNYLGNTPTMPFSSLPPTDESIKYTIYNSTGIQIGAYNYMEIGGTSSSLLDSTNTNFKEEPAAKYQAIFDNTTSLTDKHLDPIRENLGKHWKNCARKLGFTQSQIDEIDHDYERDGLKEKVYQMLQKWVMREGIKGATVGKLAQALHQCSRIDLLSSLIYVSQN
# Test: In Vitro Assay
# Experimental: as §1
row,SMILES,Kd [µM]
1,"C[C@H](Oc1cc(-c2nn(C)c3c(-c4cnn(C5CCOCC5)c4)cnc(N)c23)ccc1NS(=O)(=O)C(F)F)c1ccc(F)cc1 [US20250115598, Compound 135]",> 2.5
2,"Nc1ncc(-c2cnn(C3CCOCC3)c2)c2occ(-c3ccc(NS(=O)(=O)C(F)F)c(OCc4ccc(F)cc4)c3)c12 [US20250115598, Compound 5]",> 2.5
3,"COc1ccc([C@H](C)Oc2cc(-c3nn(C)c4c(-c5cnn(C6CCOCC6)c5)cnc(N)c34)ccc2NS(=O)(=O)C(F)F)cc1 [US20250115598, Compound 129]",> 2.5
4,"C[C@H](Oc1cc(-c2nn(C)c3c(-c4cnn(C5CCN(C)C(C(F)F)C5)c4)cnc(N)c23)ccc1NS(=O)(=O)C(F)F)c1ccc(F)cc1 (stereo partly drawn) [US20250115598, Compound 158]",> 2.5

# Continued, values first:
row,Kd [µM],SMILES
1,> 2.5,"C[C@H](Oc1cc(-c2nn(C)c3c(C4=CCCN(C)C4)cnc(N)c23)ccc1NS(=O)(=O)C(F)F)c1ccc(F)cc1 [US20250115598, Compound 55]"
2,> 2.5,"Cn1nc(-c2ccc(NS(=O)(=O)C(F)F)c(OCc3ccc(F)cc3)c2)c2c(N)ncc(-c3ccncc3)c21 [US20250115598, Compound 14]"

# Target: T2, Mixed lineage kinase domain-like protein (Homo sapiens, UniProt Q8NB16)
# T2 sequence (Q8NB16 whole entry): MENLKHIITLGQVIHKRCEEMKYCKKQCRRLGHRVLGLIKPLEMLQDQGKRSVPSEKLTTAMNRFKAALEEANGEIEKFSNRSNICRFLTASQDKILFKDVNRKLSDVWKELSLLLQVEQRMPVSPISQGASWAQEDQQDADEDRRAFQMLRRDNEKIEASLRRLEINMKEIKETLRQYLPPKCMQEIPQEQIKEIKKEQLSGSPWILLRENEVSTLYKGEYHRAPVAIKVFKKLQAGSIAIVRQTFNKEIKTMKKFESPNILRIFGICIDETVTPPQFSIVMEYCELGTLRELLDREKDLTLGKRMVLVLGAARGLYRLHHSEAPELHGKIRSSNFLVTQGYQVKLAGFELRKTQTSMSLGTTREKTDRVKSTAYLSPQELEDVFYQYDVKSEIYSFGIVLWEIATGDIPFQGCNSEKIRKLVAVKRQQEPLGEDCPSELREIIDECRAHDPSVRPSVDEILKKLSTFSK
# Test: In Vitro Assay
# Experimental: as §1
row,Kd [µM],SMILES
1,< 0.05,"C[C@H](Oc1cc(-c2nn(C)c3c(-c4cnn(CCC(F)(F)F)c4)cnc(N)c23)ccc1NS(=O)(=O)C(F)F)c1ccc(F)cc1 [US20250115598, Compound 113]"

# Reference: BindingDB's records for patent US20250115598 (Anaxis Pharma, 2025)
